First: NC(=O)c1c(NC(=O)C2CC2)sc2c1CCC(F)(F)C2
Second: CCOC(=O)C1=C(NC(=O)Nc2cc(C(=O)OC(C)C)c(Cl)cc2F)CCCC1
The melting point of the first is higher: 207 to 208 °C for the first, 129 to 130 °C for the second.

Compared with `CC(C)NN(C[C@@H](O)[C@H](Cc1ccccc1)NC(=O)OCc1ccccc1)C(=O)OC(C)(C)C`, `N[C@@H](Cc1ccccc1)C(=O)N(CC1CC(Cl)=NO1)C(=O)OCc1ccccc1` (stereo partly specified) is higher in melting point: 118 to 120 °C for the first, 141 to 148 °C for the second.

Compared with `CN(c1nc(-c2cc3ccccc3[nH]c2=O)cs1)S(=O)(=O)c1cn(C)cn1`, `Cc1nc(-c2cc3cccc(N(C)S(=O)(=O)c4cccs4)c3[nH]2)cs1` is lower in melting point: > 300 °C for the first, 161 to 162 °C for the second.

First: Cn1nc(-c2c(F)cccc2Cl)nc1-c1ccc(COc2ncc(Cl)cc2Cl)c(Cl)c1
Second: Cc1nc2c(c(=O)[nH]1)-c1ccc(Cl)cc1C(c1ccccc1F)=NC2
The melting point of the first is lower: 153 to 155 °C for the first, 262 to 264 °C for the second.

First: O=C(CCn1cnc2c(=O)[nH]cnc21)NCCc1c[nH]c2ccccc12
Second: O=C(O)Cc1cc(Br)ccc1OCCCc1ccccc1
The melting point of the first is higher: 204 to 206 °C for the first, 79.5 to 81 °C for the second.

Compared with `COc1cccc2c1nc(C(F)F)n2-c1nc(N2CCOCC2)cc(N2C[C@@H](C)O[C@@H](C)C2)n1`, `Brc1ccn2nc(N3CCOCC3)nc2c1` is higher in melting point: 132 to 134 °C for the first, 178 to 179 °C for the second.

First: C=CCOC(=O)c1ccc(OC(=O)c2ccc(O)c(C34CC5CC(CC(C5)C3)C4)c2)cc1
Second: O=C(NCCCc1ccncc1)N(CCC12CC3CC(CC(C3)C1)C2)Cc1ccccc1
The melting point of the first is higher: 175 to 177 °C for the first, 130 to 135 °C for the second.

First: Cc1cn(C2CC3OCC3O2)c(=O)[nH]c1=O (stereo unspecified)
Second: O=c1[nH]c2cc(F)c(NCCCC3CCCOC3)cc2o1 (stereo unspecified)
The melting point of the first is higher: 188 to 190 °C for the first, 144 to 145 °C for the second.

Compared with `COc1cc(N)ccc1S(=O)(=O)n1c(=O)n(C2CCCCC2)c2cc(Cl)ccc21`, `COc1cc(N)c(Cl)cc1C(=O)NCC1CCCN1C1CCCCC1` (stereo unspecified) is lower in melting point: 211 °C for the first, 123 to 124 °C for the second.

First: CC(C)(C)P(=O)(CCC(=O)O)CCC(=O)O
Second: CC(C)(C)OC(=O)NCC1=C(CC(=O)O)CCCC1
The melting point of the first is higher: 174 °C for the first, 118 to 119 °C for the second.

Compared with `N#Cc1cc(-c2cccc(Cl)c2)ccc1N`, `C[N+](C)([O-])c1ccc(/C=C/c2c(Cl)cccc2Cl)cc1` is lower in melting point: 118 to 119 °C for the first, 80 to 82 °C for the second.

First: CCn1cc(C(=O)O)c(=O)c2cc(F)c(N3CCN(C)C(c4cccs4)C3)cc21 (stereo unspecified)
Second: COC(=O)C(c1ccccc1Cl)N1CCc2sc(OC(=O)C(C)(C)C)cc2C1 (stereo unspecified)
The melting point of the first is higher: 238 to 240 °C for the first, 118 to 120 °C for the second.

Compared with `CC(C)C(=O)NC(=O)c1cccc(-c2noc(-c3ccccc3F)n2)c1`, `CC(C)n1cc(Cc2cc3cccc(-c4cccc(C(=O)NCCO)c4)c3s2)ccc1=O` is lower in melting point: 183 to 184 °C for the first, 178 to 183 °C for the second.

Compared with `C=CCNc1c(C#N)cnc2cn[nH]c12`, `COc1cc2c(Nc3ccc(Sc4nccn4C)c(Cl)c3)c(C#N)cnc2cc1N(C)CCCN(C)C` is lower in melting point: 249 to 252 °C for the first, 196 to 201 °C for the second.

First: COc1cc2c(c(Cl)c1Cl)SCC2=O
Second: CC(C)(C)N1C(=O)c2cc([N+](=O)[O-])c(Cl)nc2C1=O
The melting point of the first is higher: 178 to 180 °C for the first, 100 to 104 °C for the second.

Compared with `N#Cc1cc(-c2cccnc2)nn1-c1ccc(NCC2Cc3ccccc3C2)cc1`, `COc1cc2c(cc1OCc1ccccc1)CCN(C(=O)c1ccc(C#N)cc1)C2=O` is higher in melting point: 156 to 158 °C for the first, 158 to 159 °C for the second.

Compared with `CCOC(=O)N=P(c1ccccc1)(c1ccccc1)c1ccccc1CN(C)C`, `CC(=O)Nc1ccc(C(NC(c2ccccc2)c2ccccc2)P(O)O)cc1` (stereo unspecified) is higher in melting point: 103 to 105 °C for the first, 196 to 200 °C for the second.

First: Cc1ccc(CCCO)c(NCc2ccc3nc(NCCCN4CCOCC4)n(Cc4cccc5cccnc45)c3c2)c1
Second: N=C(N)c1c[nH]c2ccc(CCNC(=O)c3ccc(-c4ccnc(OCCN5CCCC5)n4)cc3)cc12
The melting point of the first is higher: 165 °C for the first, 104 to 105 °C for the second.

First: CCOC(=O)Cc1[nH]c(C(=O)c2ccccc2)c(C)c1C(=O)OCC
Second: CC(C)C[C@H](N)C(=O)NCCCCNC(=O)OCc1ccccc1
The melting point of the first is higher: 152 to 154 °C for the first, 137 to 139 °C for the second.

First: COCC(C)NC1=NS(=O)(=O)c2cnccc2N1 (stereo unspecified)
Second: COC[C@@H](NC(C)=O)C(=O)NCc1ccc(I)cc1
The melting point of the first is higher: 174 to 178 °C for the first, 159 to 160 °C for the second.

Compared with `O=C(NCc1ccc(Cl)cc1)c1cn2c(CCO)cc3cc(CC4CCOCC4)cc(c1=O)c32`, `Cc1ccc2c(c1)C(O)(c1ccc3c(c1)OCO3)C(=O)N2Cc1ccc(Cl)cc1` (stereo unspecified) is lower in melting point: 204 to 206 °C for the first, 122 to 124 °C for the second.

Compared with `COc1nc(C)nc(NC(=O)NS(=O)(=O)c2ccccc2C(=O)O)n1`, `Cc1cc(Cl)nc(NC(=O)NS(=O)(=O)c2ccccc2OC(F)F)n1` is higher in melting point: 157 to 158 °C for the first, 190 to 191 °C for the second.

First: COc1ccc2sc(C(N)=O)c(SCCN3CCOCC3)c2c1
Second: COC(=O)C1=Cc2cc(-c3ccc(OC)cc3)ccc2SCC1
The melting point of the first is higher: 158 to 160 °C for the first, 117 to 120 °C for the second.

First: O=[N+]([O-])c1cc2nccnc2cc1Sc1cccc2cnccc12
Second: Cn1c(-c2ccc(-c3cncs3)cc2)cnc1[C@H](Cc1ccccn1)N(C=O)c1cc2cc(Cl)ccc2o1
The melting point of the first is higher: 222 to 225 °C for the first, 165 to 167 °C for the second.

First: COc1ccnc(CSc2nc3c(OC(F)F)c(OC)c(OC)cc3[nH]2)c1
Second: COc1ccc2nc(COc3ccc(CC4SC(=O)NC4=O)cc3)n(C)c2c1 (stereo unspecified)
The melting point of the first is lower: 112 to 114 °C for the first, 267 to 271 °C for the second.

First: Cc1ccc(C(=O)Cn2c(-n3ncnc3N)nc3ccccc32)cc1C
Second: CCNc1nc2ccccc2n2cnnc12
The melting point of the first is lower: 190 to 193 °C for the first, 254 to 256 °C for the second.

Compared with `Cc1cccc(C)c1C=NNC(=N)NCc1ccccc1`, `c1ccc(COc2cccc(CCCn3ccnn3)c2)cc1` is lower in melting point: 125 to 126 °C for the first, 74 to 75 °C for the second.

First: C[C@]1(COc2ccc(N3CCN(Cc4ccc(C(F)(F)F)cc4)CC3)cc2)Cn2cc([N+](=O)[O-])nc2O1
Second: CS(=O)(=O)c1cccc(-c2cn(-c3nc(-c4ccc(C(F)(F)F)cc4)cc(C(F)(F)F)n3)cn2)c1
The melting point of the first is lower: 206 to 207 °C for the first, 231 °C for the second.

Compared with `COC(=O)c1ccc(CN([C@@H](C)c2ccccc2)S(=O)(=O)c2ccc(Cl)cc2)cc1`, `CC(CCN(C)C1CCC(c2ccc3[nH]c(=O)oc3c2)CC1)c1ccccc1` (stereo unspecified) is lower in melting point: 105 to 106 °C for the first, 61 to 70 °C for the second.

Compared with `O=C(O)C(=NO)c1cccs1`, `CC(=O)SC/C(=C/c1ccccc1)C(=O)O` is lower in melting point: 132 °C for the first, 57 °C for the second.

First: O=P(O)(O)C(c1cccc(C(F)(F)F)c1)c1cccc(C(F)(F)F)c1
Second: CC(Oc1ncn(-c2ccc(OC(F)(F)F)cc2)n1)C(=O)O (stereo unspecified)
The melting point of the first is lower: 191 to 193 °C for the first, 200 to 203 °C for the second.

First: COC(=O)/C=C/c1ccc(-c2ccc(C)cc2)o1
Second: Cc1ccc(OCCOS(N)(=O)=O)cc1
The melting point of the first is higher: 113 to 115 °C for the first, 108 to 110 °C for the second.

First: CCOC(=O)c1cc(NS(=O)(=O)c2cccnc2)ccc1Oc1cncc(Cl)c1
Second: COC(=O)c1ccc(CNC(=O)c2[nH]c(-c3cccs3)cc2-c2ccc(F)cc2)cn1
The melting point of the first is lower: 120 to 122 °C for the first, 174 to 175 °C for the second.

Compared with `CN(C)c1ccc(-c2ccnc3c(C(=O)c4cccs4)cnn23)cc1NC(=O)c1ccncc1`, `COc1cc(-c2cccc(Cl)c2)c2cc(C(O)(c3ccc(Cl)cc3)c3cncn3C)cc(NC(C)=O)c2n1` (stereo unspecified) is lower in melting point: 151 to 153 °C for the first, 143 °C for the second.

First: CCCCCCCCCCCCCCCCCCCCCC(=O)OCC1CC1
Second: CCCCCCCCCCCCCCCCN(C(=O)C(F)(F)F)c1ccc(C(=O)O)cc1
The melting point of the first is lower: 44 °C for the first, 50 to 53 °C for the second.

First: O=c1c2c(cc3n1CCCS3)CCCC2
Second: N#Cc1c(N2CCc3ccccc3CC2)nc2n(c1=O)CCN2
The melting point of the first is lower: 123 to 124 °C for the first, > 200 °C for the second.

Compared with `CC(C)c1ccc2c(c1)OC1(OC(=O)C(C)(C)C)c3ccccc3C(=O)C21OC(=O)C(C)(C)C` (stereo unspecified), `CC(C)(C)OC(=O)CN1C(=O)C(=O)c2ccccc21` is lower in melting point: 153 to 157 °C for the first, 119 to 121 °C for the second.

First: CC(C)(C)OC(=O)N1CCN(c2ncccc2C=O)CC1
Second: CC(=O)NC1CCN(c2ccc(Cl)cn2)CC1
The melting point of the first is lower: 88 to 89 °C for the first, 196 to 198 °C for the second.

First: COC(CCC(C)C1CCC2C3C(OC(C)=O)CC4CC(OC(C)=O)CCC4(C)C3CC(=O)C12C)=NNS(=O)(=O)c1ccc(C)cc1 (stereo unspecified)
Second: CC=C1CCC2C3CCC4CC(O)C(OCC)CC4(C)C3C(=O)CC12C (stereo unspecified)
The melting point of the first is lower: 146 to 147 °C for the first, 172 to 178 °C for the second.

Compared with `N#CC(C#N)=C1N(CCCN2CCC(F)(F)C2)CCN1CCCN1CCC(F)(F)C1`, `CCCCn1c(=O)c2c(ncn2S(=O)(=O)CCCCl)n(CCCC)c1=O` is lower in melting point: 122 to 124 °C for the first, 71 to 73 °C for the second.

First: NCCCc1csc(N=C2NCCCN2)n1
Second: CCc1c2c(c(C)[nH]c1=O)CC(c1ccccn1)CC2 (stereo unspecified)
The melting point of the first is lower: 116 °C for the first, 300 °C for the second.

First: CCCCCCCC(=O)C=Cc1ccc(O)c(OC)c1
Second: CCCc1nc2c(N)nc3cccnc3c2n1CCCC(C)N(OC)C(C)=O (stereo unspecified)
The melting point of the first is lower: 45 °C for the first, 158 to 159 °C for the second.

First: COc1c(C#N)c(OC)c(OC)c(OC)c1OC
Second: CC1(C)Oc2ccc(C#N)cc2C(Oc2ccnc(O)c2)C1O (stereo unspecified)
The melting point of the first is lower: 64 °C for the first, 249 to 250 °C for the second.

First: CC1(C)OC[C@H](COn2cnc3c(Cl)nc(NC=O)nc32)O1
Second: Cc1cc(S)n2nc(CC(=O)O)nc2n1
The melting point of the first is lower: 145 to 148 °C for the first, 253 to 255 °C for the second.

Compared with `CC(C)(C)OC(=O)NNC1C2CC3CC(C2)CC1C3` (stereo unspecified), `COC(=O)C1CC(Oc2ccc(N)cc2)CN1C(=O)C1(C)CCc2c(C)c(O)c(C)c(C)c2O1` (stereo unspecified) is higher in melting point: 90 to 92 °C for the first, 110 to 112 °C for the second.

First: N#Cc1ccc(NC(=O)NCCCCl)cc1
Second: O=c1[nH]c2scnc2c2c(O)cccc12
The melting point of the first is lower: 95 to 97 °C for the first, > 250 °C for the second.

Compared with `CC(C)(C)C(=O)Oc1ccc2nc(S(N)(=O)=O)sc2c1`, `Cc1cncc(-c2ccc(OC3SCC(O)C(O)C3O)cn2)c1` (stereo unspecified) is lower in melting point: 167 °C for the first, 165 to 166 °C for the second.

First: C[C@@H](n1cc(Cn2cncn2)nn1)[C@](O)(Cn1cncn1)c1ccc(F)cc1F
Second: O=c1c(=NO)c2ccccc2oc2cc(F)ccc12
The melting point of the first is lower: 162 to 163 °C for the first, 196 to 198 °C for the second.

Compared with `Cc1nnc(CNc2c(C)cccc2C)o1`, `Cc1nc(N)c2nc(C)n(CC3(O)CCC3)c2c1C` is higher in melting point: 134 to 135 °C for the first, > 250 °C for the second.

Going from `COc1ccccc1-c1cn([C@H]2CN3CCC2CC3)nn1` to `NC(=O)c1nc(-c2cccc(O)c2)nc2c1[nH]c(=O)n2-c1cccc2[nH]ccc12`, the melting point rises from 120 °C to > 260 °C.

For `Cc1nc2c(Cl)cc3nc(O)c(O)nc3c2nc1C`, the melting point was > 300 °C.

— a melting point compilation (Tetko et al.; mined from patent text by program, amines drawn as free bases though some values may be those of a salt)
